Test results taken from patent US10752587B2, “Homobispiperidinyl derivatives as liver X receptor beta agonists, compositions and their use” (Merck Sharp & Dohme Corp., priority 2015, dated 2020).

What was measured:
[1] = biological target: T1, glutathione-S-transferase (GST) tagged LXRbeta LBD (ligand binding domain) (Homo sapiens, UniProt P55055); experiment: LanthaScreen TR-FRET Liver X Receptor Coactivator Assay, co-activator recruitment to LXRbeta LBD; format: biochemical; conditions: for Emax / LXR beta Activity @ max dose (%): efficacy at max dose, in relation to reference dual agonist T0901317; for Emax: read-out: LXR beta Activity @ max dose (%); for EC50: potency (Inflection Point, IP), co-activator recruitment to LXRbeta LBD, in relation to T0901317, read-out: LXR beta IP
T1 construct: purchased Invitrogen pv4658.pps
T1 sequence (P55055 222-460 limits assumed): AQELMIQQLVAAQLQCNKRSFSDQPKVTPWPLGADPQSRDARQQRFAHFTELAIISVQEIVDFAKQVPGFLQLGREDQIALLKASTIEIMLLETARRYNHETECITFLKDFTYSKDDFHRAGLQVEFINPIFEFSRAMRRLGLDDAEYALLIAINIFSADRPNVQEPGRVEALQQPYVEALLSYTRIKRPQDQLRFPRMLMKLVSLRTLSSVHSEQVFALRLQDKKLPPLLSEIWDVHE
Method in brief: (§1)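 GST-tagged LBD added to test compound, then fluorescein-labelled coactivator peptide plus terbium anti-GST antibody; incubated at room temperature, TR-FRET read. Potency given as inflection point and efficacy as Emax relative to reference dual agonist T0901317.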

[2] = biological target: T2, glutathione-S-transferase (GST) tagged LXRalpha LBD (ligand binding domain) (Homo sapiens, UniProt Q13133); experiment: LanthaScreen TR-FRET Liver X Receptor Coactivator Assay, co-activator recruitment to LXRalpha LBD; format: biochemical; conditions: for Emax / LXR alpha Activity @ max dose (%): efficacy at max dose, in relation to reference dual agonist T0901317; for Emax: read-out: LXR alpha Activity @ max dose (%); for EC50 / LXR alpha IP (nM): potency (Inflection Point, IP), co-activator recruitment to LXRalpha LBD, in relation to T0901317; for EC50: read-out: LXR alpha IP
T2 construct: purchased Invitrogen pv4655
T2 sequence (Q13133 209-447 limits assumed): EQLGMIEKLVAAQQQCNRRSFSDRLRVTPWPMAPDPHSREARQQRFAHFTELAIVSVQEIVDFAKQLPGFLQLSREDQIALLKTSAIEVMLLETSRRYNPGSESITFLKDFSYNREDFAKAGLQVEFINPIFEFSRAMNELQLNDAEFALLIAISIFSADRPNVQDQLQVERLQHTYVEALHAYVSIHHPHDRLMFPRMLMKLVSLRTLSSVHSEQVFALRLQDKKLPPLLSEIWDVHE
Method in brief: as §1

SMILES | Emax [1] [%] | EC50 [1] [µM] | Emax [2] [%] | EC50 [2] [µM] | LXR beta Activity @ max dose (%) [1] [%] | LXR alpha Activity @ max dose (%) [2] [%] | LXR alpha IP (nM) [2]
O=C(c1ccc(N2CCC(CC3CCN(C(=O)[C@](O)(c4ccccc4)C(F)(F)F)CC3)CC2)cc1Cl)N1C2CCC1CC2 [Example 4-5, (2R)-3-[4-({1-[4-(7-azabicyclo[2.2.1]hept-7-ylcarbonyl)-3-chlorophenyl]piperidin-4-yl}methyl)piperidin-1-yl]-1,1,1-trifluoro-3-oxo-2-phenylpropan-2-ol] | 53 | 0.059 | 29 | 0.401 | – | – | –
COc1cccc([C@@](O)(C(=O)N2CCC(CC3CCN(c4ccc(C(=O)N(C)C)cc4)CC3)CC2)C(F)(F)F)c1 [Example 2-132, N,N-dimethyl-4-[4-({1-[(2R)-3,3,3-trifluoro-2-hydroxy-2-(3-methoxyphenyl)propanoyl]piperidin-4-yl}methyl)piperidin-1-yl]benzamide] | – | 0.051 | – | – | 49 | 7 | NO IP
COc1cc(F)cc([C@@](O)(C(=O)N2CCC(CC3CCN(c4ccc(C(=O)N(C)C)cc4)CC3)CC2)C(F)(F)F)c1 [Example 2-137, N,N-dimethyl-4-[4-({1-[(2R)-3,3,3-trifluoro-2-(3-fluoro-5-methoxyphenyl)-2-hydroxy-propanoyl]piperidin-4-yl}methyl)piperidin-1-yl]benzamide] | 78 | 0.03 | 15 | – | – | – | NO IP
COc1cccc([C@@](O)(C(=O)N2CCC(CC3CCN(c4ccc(C(=O)N(C)C)cc4)CC3)CC2)C(F)(F)F)c1 [Example 2-124, N,N-dimethyl-4-[4-({1-[(2R)-3,3,3-trifluoro-2-hydroxy-2-(3-methoxy-phenyl)propanoyl]piperidin-4-yl}methyl)piperidin-1-yl]benzamide] | 55 | 0.043 | 4 | – | – | – | NO IP
CN(C)C(=O)c1ccc(N2CCC(CC3CCN(C(=O)[C@](O)(c4cc(Cl)cc(Cl)c4)C(F)F)CC3)CC2)cc1Cl [Example 2-121, 2-chloro-4-[4-({1-[(2R)-2-(3,5-dichloro-phenyl)-3,3-difluoro-2-hydroxy-propanoyl]piperidin-4-yl}methyl)piperidin-1-yl]-N,N-dimethyl-benzamide] | 51 | 0.007 | 0 | – | – | – | NO IP
CN(C)C(=O)c1ccc(N2CCC(CC3CCN(C(=O)[C@](O)(c4ccccc4)C(F)(F)F)CC3)CC2)cc1Cl [Example 2-43, 2-chloro-N,N-dimethyl-4-[4-({1-[(2R)-3,3,3-trifluoro-2-hydroxy-2-phenyl-propanoyl]piperidin-4-yl}methyl)piperidin-1-yl]benzamide] | – | – | – | – | 75 | 16 | –
CN(C)C(=O)c1ccc(N2CCC(OC3CCN(C(=O)C4(C(F)(F)F)CCCCC4)CC3)CC2)cc1Cl [Example 2-19, 2-chloro-N,N-dimethyl-4-{4-[(1-{[1-(trifluoromethyl)cyclohexyl]carbonyl}piperidin-4-yl)oxy]piperidin-1-yl}benzamide] | 75 | 0.206 | 23 | 1.81 | – | – | –

The remaining lines, values ahead:

Emax [1] [%] | EC50 [1] [µM] | Emax [2] [%] | EC50 [2] [µM] | LXR beta Activity @ max dose (%) [1] [%] | LXR alpha Activity @ max dose (%) [2] [%] | LXR alpha IP (nM) [2] | SMILES
91 | 0.003 | 50 | 0.088 | – | – | – | CN(C)C(=O)c1ccc(N2CCC(CC3CCN(C(=O)[C@](O)(c4cccc(F)c4)C(F)(F)F)CC3)CC2)nc1Cl [Example 7-72, 2-chloro-N,N-dimethyl-6-[4-({1-[(2R)-3,3,3-trifluoro-2-(3-fluorophenyl)-2-hydroxypropanoyl]piperidin-4-yl}methyl)piperidin-1-yl]pyridine-3-carboxamide]
41 | 0.006 | 10 | – | – | – | NO IP | CCc1cccc(C(O)(C(=O)N2CCC(CC3CCN(c4ccc(C(=O)N(C)C)c(Cl)n4)CC3)CC2)C(F)(F)F)c1 (centres unmarked) [Example 7-90, 2-chloro-6-[4-({1-[2-(3-ethylphenyl)-3,3,3-trifluoro-2-hydroxypropanoyl]piperidin-4-yl}methyl)piperidin-1-yl]-N,N-dimethylpyridine-3-carboxamide]
151 | 0.049 | 49 | 1.75 | – | – | – | CN(C)C(=O)c1ccc(N2CCC(CC3CCN(C(=O)[C@](N)(c4ccccc4)C(F)(F)F)CC3)CC2)nc1Cl [Example 7-111, 6-[4-({1-[(2R)-2-amino-3,3,3-trifluoro-2-phenylpropanoyl]piperidin-4-yl}methyl)piperidin-1-yl]-2-chloro-N,N-dimethylpyridine-3-carboxamide]
86 | 0.006 | 19 | 0.112 | – | – | – | COc1cc(F)cc(C(O)(C(=O)N2CCC(CC3CCN(c4ccc(C(=O)N(C)C)c(Cl)n4)CC3)CC2)C(F)(F)F)c1 (centres unmarked) [Example 7-89, 2-chloro-N,N-dimethyl-6-[4-({1-[3,3,3-trifluoro-2-(3-fluoro-5-methoxyphenyl)-2-hydroxypropanoyl]piperidin-4-yl}methyl)piperidin-1-yl]pyridine-3-carboxamide]
100 | 0.025 | 29 | 0.89 | – | – | – | COc1cccc([C@@](O)(C(=O)N2CCC(OC3CCN(c4ccc(C(=O)N(C)C)c(Cl)n4)CC3)CC2)C(F)(F)F)c1 [Example 7-153, 2-chloro-N,N-dimethyl-6-[4-({1-[(2R)-3,3,3-trifluoro-2-hydroxy-2-(3-methoxyphenyl)propanoyl]piperidin-4-yl}oxy)piperidin-1-yl]pyridine-3-carboxamide]
59 | 0.091 | 0 | – | – | – | NO IP | CCOc1cccc([C@@](O)(C(=O)N2CC(CC3CCN(c4ccc(C(=O)NC)c(Cl)c4)CC3)C2)C(F)(F)F)c1 [Example 7-39, 2-chloro-4-[4-({1-[(2R)-2-(3-ethoxyphenyl)-3,3,3-trifluoro-2-hydroxypropanoyl]azetidin-3-yl}methyl)piperidin-1-yl]-N-methylbenzamide]
35 | 0.025 | 0 | – | – | – | NO IP | CNC(=O)c1ccc(N2CCC(CC3CCN(C(=O)[C@](O)(c4cc(Cl)cc(OC)c4)C(F)(F)F)CC3)CC2)cc1Cl [Example 7-117, 2-chloro-4-[4-({1-[(2R)-2-(3-chloro-5-methoxyphenyl)-3,3,3-trifuoro-2-hydroxypropanoyl]piperidin-4-yl}methyl)piperidin-1-yl]-N-methylbenzamide]
86 | 0.009 | 22 | 0.429 | – | – | – | COc1cccc([C@@](O)(C(=O)N2CCC(CC3CCN(c4ccc(C(=O)N(C)C)c(Cl)n4)CC3)CC2)C(F)(F)C(F)(F)F)c1 [Example 7-79, 2-chloro-N,N-dimethyl-6-[4-({1-[(2R)-3,3,4,4,4-pentafluoro-2-hydroxy-2-(3-methoxyphenyl)butanoyl]piperidin-4-yl}methyl)piperidin-1-yl]pyridine-3-carboxamide]
67 | 0.01 | 13 | – | – | – | NO IP | CN(C)C(=O)c1ccc(N2CCC(CC3CCN(C(=O)[C@](O)(c4cccc(OC(F)(F)F)c4)C(F)(F)F)CC3)CC2)nc1Cl [Example 7-75, 2-chloro-N,N-dimethyl-6-{4-[(1-{(2R)-3,3,3-trifluoro-2-hydroxy-2-[3-(trifluoromethoxy)phenyl]propanoyl}piperidin-4-yl)methyl]piperidin-1-yl}pyridine-3-carboxamide]
